The results in this text go back to ChEMBL document CHEMBL1201862, “PubChem BioAssay data set” (2004).

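Dose response: 5 concentrations. Exposure: 48 h. Format: 96-well plates. Endpoint: linear interpolation; highest concentration if not reached. GI50: concentration for 50% inhibition of growth.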 Active and inactive are the calls of the source. No stated cut-off is given here; in the data, active = GI50 up to about 1.1 µM and inactive = higher. A value given as a limit tells only on which side of the number the result lay.

Among the test systems are CAKI-1; DU-145; EKVX; HCT-116; HOP-92; HT-29; IGROV-1; K562; LOX IMVI; M14; MCF7; MDA-N; MOLT-4; NCI-H460; OVCAR-3; SF-295; SK-MEL-5; T47D; UO-31; BT-549.
Common to all, as to experiment: NCI-60 cell line screen, 48 h

Consider `O=C(c1cc2c(c3ccccc13)NCCN=C2C(F)(F)F)C(F)(F)F`, for which the GI50 in the assay on CAKI-1 was 32.4 µM (inactive); with DU-145, 41.4 µM (inactive); in the assay with EKVX, 47.4 µM (inactive); in the assay on HCT-116 it was 26.7 µM (inactive); in the assay with HOP-92, 21.9 µM (inactive); with HT-29 it was 11.6 µM (inactive). The GI50 in the assay with IGROV-1 was 29.6 µM (inactive); in the assay on K562, 7.16 µM (inactive); in the assay on LOX IMVI, 13.7 µM (inactive); with M14, 24.9 µM (inactive); with MCF7, 19.2 µM (inactive); with MDA-N, 21.4 µM (inactive). In addition, the GI50 with MOLT-4 was 7.11 µM (inactive); in the assay on NCI-H460 it was 15.5 µM (inactive); with OVCAR-3, 26 µM (inactive); in the assay on SF-295 it was 16 µM (inactive); in the assay with SK-MEL-5 it was 16.4 µM (inactive); with T47D, 21.4 µM (inactive). The GI50 in the assay with UO-31 is 51.9 µM (inactive).
For `O=C(O)c1cccc(NC(C(=O)c2ccccc2)c2ccccc2)c1` (configuration not stated), the GI50 was > 100 µM (inactive) with CAKI-1; > 100 µM (inactive) with DU-145; > 100 µM (inactive) with EKVX; > 100 µM (inactive) with HCT-116; 34 µM (inactive) in the assay with HOP-92; > 100 µM (inactive) in the assay on IGROV-1. Also, the GI50 in the assay on K562, in the assay on LOX IMVI, in the assay with M14, in the assay with MCF7, in the assay with MDA-N and in the assay with MOLT-4 was > 100 µM (inactive) in each case. The GI50 with NCI-H460, with OVCAR-3, with SF-295, in the assay on SK-MEL-5, in the assay on T47D and in the assay with UO-31 was > 100 µM (inactive) in each case.
Consider `O=[N+]([O-])c1ccc(CSc2nn(Cc3ccc([N+](=O)[O-])cc3)cc3ncnc2-3)cc1`, for which the GI50 was 21 µM (inactive) with BT-549; 35.2 µM (inactive) in the assay on CAKI-1; 69.3 µM (inactive) in the assay with EKVX; 37.1 µM (inactive) with HCT-116; 0.361 µM (active) with HOP-92; 29.6 µM (inactive) in the assay on HT-29. In addition, the GI50 was 20.4 µM (inactive) in the assay on IGROV-1; 31.8 µM (inactive) in the assay on K562; 33.9 µM (inactive) in the assay with LOX IMVI; 34.8 µM (inactive) with M14; 27.9 µM (inactive) with MCF7; 33 µM (inactive) in the assay with MDA-N. Further, the GI50 in the assay on MOLT-4 was 23.5 µM (inactive); with OVCAR-3, 56.2 µM (inactive); in the assay on SF-295, 45.3 µM (inactive); in the assay on SK-MEL-5, 32 µM (inactive); in the assay on T47D, 44.6 µM (inactive); with UO-31, 12.1 µM (inactive).
As to `CC(C)(C)c1cc(-c2cc(C(C)(C)C)n(-c3ccccc3)n2)nn1-c1ccccc1`, the GI50 with BT-549, in the assay on CAKI-1, in the assay with DU-145, in the assay on EKVX, in the assay with HCT-116 and in the assay with HOP-92 was > 100 µM (inactive) each time. The GI50 is 68.9 µM (inactive) in the assay on HT-29; > 100 µM (inactive) in the assay on IGROV-1; 3.27 µM (inactive) with K562; 6.43 µM (inactive) with LOX IMVI; > 100 µM (inactive) with M14; > 100 µM (inactive) in the assay with MCF7. Moreover, the GI50 with MOLT-4 is > 100 µM (inactive); with NCI-H460, 61.5 µM (inactive); with OVCAR-3, > 100 µM (inactive); in the assay on SF-295 it was > 100 µM (inactive); with SK-MEL-5 it was > 100 µM (inactive); in the assay on T47D, 59.2 µM (inactive). In the assay with UO-31, the GI50 is 30.4 µM (inactive).
Take `Nn1c(S)nnc1-c1ccccc1Nc1ccccc1-c1nnc(S)n1N`: the GI50 in the assay on BT-549, in the assay with DU-145, in the assay with EKVX, in the assay with HCT-116, with HOP-92 and in the assay on HT-29 was > 50 µM (inactive) each time. Also, the GI50 with IGROV-1, with K562, with LOX IMVI, in the assay on M14, in the assay on MCF7 and with MOLT-4 was > 50 µM (inactive) in each case. Further, the GI50 in the assay on NCI-H460, in the assay with OVCAR-3, in the assay with SF-295, in the assay on SK-MEL-5 and with UO-31 was > 50 µM (inactive) each time.
`C=C1C(=O)OC2CC(C)C3(O)CCC(=O)C3(C)CC12` (configuration not stated): the GI50 with BT-549 is 44.2 µM (inactive); in the assay on CAKI-1 it was 17.5 µM (inactive); with DU-145 it was 31.9 µM (inactive); with EKVX, 27.2 µM (inactive); in the assay with HCT-116, 31.1 µM (inactive); in the assay with HOP-92 it was 57.1 µM (inactive). In addition, the GI50 with HT-29 is 20.2 µM (inactive); in the assay on IGROV-1, 23.8 µM (inactive); in the assay with LOX IMVI, 31.8 µM (inactive); with M14, 22 µM (inactive); in the assay on MCF7, 29.2 µM (inactive); in the assay with MOLT-4 it was 22.2 µM (inactive). Also, the GI50 in the assay on OVCAR-3 was 16 µM (inactive); with SF-295 it was 40.5 µM (inactive); with SK-MEL-5 it was 36.6 µM (inactive); in the assay on T47D, 40.4 µM (inactive); with UO-31 it was 28.2 µM (inactive).
Take `CCc1n[nH]c(=O)n1-c1ccc2ccccc2c1`: the GI50 in the assay with CAKI-1, in the assay with DU-145, with EKVX, in the assay with HCT-116, in the assay with HOP-92 and in the assay on HT-29 was > 100 µM (inactive) in each case. Further, the GI50 in the assay with IGROV-1, with K562, with LOX IMVI, in the assay with M14, in the assay on MCF7 and in the assay on MDA-N was > 100 µM (inactive) each time. Also, the GI50 with MOLT-4, in the assay on NCI-H460, in the assay with OVCAR-3, in the assay on SF-295, with SK-MEL-5 and with T47D was > 100 µM (inactive) each time. Moreover, in the assay on UO-31, the GI50 was > 100 µM (inactive).
Regarding `CC(=O)OCCC1c2ccccc2-n2nc(-c3ccccc3)c(O)c21` (configuration not stated), the GI50 was 17.1 µM (inactive) in the assay with BT-549; 18.7 µM (inactive) in the assay on CAKI-1; 17.7 µM (inactive) with DU-145; 15.9 µM (inactive) in the assay on EKVX; 16.5 µM (inactive) in the assay on HCT-116; 11.9 µM (inactive) with HOP-92. The GI50 in the assay with HT-29 was 21.2 µM (inactive); in the assay with IGROV-1 it was > 10 µM (inactive); with K562, 10.8 µM (inactive); in the assay with LOX IMVI, 13.7 µM (inactive); with M14, 15.3 µM (inactive); in the assay with MCF7 it was 7.11 µM (inactive). In addition, the GI50 in the assay on MDA-N is 17.5 µM (inactive); in the assay on MOLT-4, 9.66 µM (inactive); with NCI-H460 it was 14.5 µM (inactive); with OVCAR-3 it was 21.3 µM (inactive); in the assay on SF-295, 20 µM (inactive); with SK-MEL-5, 17 µM (inactive). The GI50 in the assay on UO-31 is 16.7 µM (inactive).
Regarding `CC(C)(OCc1ccccc1)c1ccccc1P(c1ccccc1)c1ccccc1`, the GI50 in the assay with BT-549 was 28.8 µM (inactive); with CAKI-1, 31.7 µM (inactive); with DU-145 it was 82.6 µM (inactive); in the assay with EKVX, 32.9 µM (inactive); in the assay with HCT-116 it was 40 µM (inactive); in the assay with HOP-92, 35.2 µM (inactive). The GI50 in the assay on HT-29 was 30.1 µM (inactive); with IGROV-1 it was 50.1 µM (inactive); in the assay with K562 it was 45.3 µM (inactive); with M14 it was 43.6 µM (inactive); in the assay on MCF7, 40.4 µM (inactive); in the assay on MOLT-4, 17.2 µM (inactive). The GI50 is 49.7 µM (inactive) in the assay on NCI-H460; 46.9 µM (inactive) with OVCAR-3; 44.8 µM (inactive) in the assay on SF-295; 35 µM (inactive) with SK-MEL-5; 28.4 µM (inactive) in the assay with T47D; 87.7 µM (inactive) in the assay with UO-31.
In the case of `CC1=CCC(C)=Nc2nc3ccccc3n21`, the GI50 in the assay with BT-549, with CAKI-1, in the assay with DU-145, with EKVX, in the assay with HCT-116 and in the assay on HOP-92 was > 100 µM (inactive) in each case. Further, the GI50 with HT-29, in the assay on IGROV-1, in the assay with K562, in the assay with LOX IMVI, with M14 and in the assay on MCF7 was > 100 µM (inactive) throughout. Besides, the GI50 in the assay with MOLT-4, in the assay on NCI-H460, in the assay on OVCAR-3, with SF-295, in the assay on SK-MEL-5 and with T47D was > 100 µM (inactive) each time. For the same compound, in the assay on UO-31, the GI50 was 23.2 µM (inactive).
As to `C=C(C)[C@@H]1CC[C@]2(C(=O)OC)CC[C@]3(C)[C@H](CC[C@@H]4[C@@]5(C)CC[C@H](O)C(C)(C)[C@@H]5CC[C@]43C)[C@@H]12` [METHYL BETULINATE], the GI50 in the assay on CAKI-1 was 20.8 µM (inactive); in the assay on DU-145, 39.8 µM (inactive); with EKVX, 21.7 µM (inactive); in the assay with HCT-116 it was 17.4 µM (inactive); in the assay with HOP-92, 19.4 µM (inactive); in the assay with HT-29, 20.5 µM (inactive). Moreover, the GI50 in the assay with IGROV-1 was 18.1 µM (inactive); in the assay with K562, 20.5 µM (inactive); in the assay on LOX IMVI it was 18.4 µM (inactive); with M14 it was 35.4 µM (inactive); with MCF7, 19.4 µM (inactive); in the assay on MDA-N, 18.2 µM (inactive). Further, the GI50 is 18.8 µM (inactive) in the assay with MOLT-4; 18.5 µM (inactive) with NCI-H460; 19.8 µM (inactive) in the assay with OVCAR-3; 18.4 µM (inactive) in the assay with SF-295; 18.8 µM (inactive) with SK-MEL-5; 12 µM (inactive) in the assay with T47D. For the same compound, the GI50 with UO-31 was 22.8 µM (inactive).
